The text below walks through data of patent US10800758B2, “Pyrimidine compound” (OTSUKA PHARMACEUTICAL CO., LTD., priority 2017, dated 2020).

Holding throughout (type): in vivo
The subject of assay [1] is ICR mice. Briefly: Subcutaneous pentylenetetrazole (scPTZ) model. Conditions: Mus musculus; male ICR mice, 30 mg/kg oral, 85 mg/kg pentylenetetrazole s.c. after 1 hour, evaluated for 30 minutes; read-out: rate of suppression against clonic convulsions. On the procedure:
This test is performed to evaluate the anticonvulsant activity of the compound as in Test Example 2. Unlike the phenotype of Test Example 2, the animal model used in this test is a phenotype model of generalized absence seizure and myoclonic seizure.
The test compound was suspended in 5% gum arabic/distilled water (w/v), and administered by forced oral administration to male ICR mice (Japan SLC, Inc., 5 to 6 weeks old, 10 per group) at a dose of 30 mg/kg. After 1 hour, 85 mg/kg of pentylenetetrazole dissolved in saline was administered subcutaneously, and the occurrence of clonic convulsions was evaluated for 30 minutes.

The subject of assay [2] is ICR mice. Briefly: Maximal electroshock seizure (MES) model. Particulars: Mus musculus; male ICR mice, 30 mg/kg oral, electrical stimulation (30 mA, 100 Hz, 0.2 second) 1 hour after administration; read-out: rate of seizure suppression (tonic hindlimb extension seizure). On the procedure: This test is performed to evaluate the anticonvulsant activity of the compound. The mouse model used in this test is a phenotype model of generalized tonic-clonic seizure and secondary generalized partial seizure. This test was performed in accordance with the report of AJ Hill et al (Br J Pharmacol. 2012 December; 167(8): 1629-42. Cannabidivarin is anticonvulsant in mouse and rat, Hill A J, et al.).
The test compound was suspended in 5% gum arabic/distilled water (w/v), and administered by forced oral administration to male ICR mice (Japan SLC, Inc., 5 to 6 weeks old, 8 per group) at a dose of 30 mg/kg. After one hour of the oral administration of the test compound, the mice were stimulated by an application of electrical current (30 mA, 100 Hz, 0.2 second) through auricular electrodes using an electroconvulsive device (UGO BASILE SRL). Then, the incidence of tonic hindlimb extension seizure was recorded. In this test, tonic hindlimb extension seizures were induced in all mice of the solvent administration group, but the rate of seizure suppression was 75% or more with the example compounds 1, 2, 3, 5, 8, 10, 12, 13, 14, 16, 18, 22, 26, 28, 30, 31, 38, 42, 47, 48 and 54, and the suppression rate was 50% or more with the example compounds 4, 6, 9, 11, 23, 41 and 45.
(Protection in the maximal electroshock model is a classic sign of anticonvulsant action.)

Another assay deals with DBA/2 mice. Kind of assay: Audiogenic seizure model. Particulars: Mus musculus; male and female DBA/2 mice, 30 mg/kg oral, auditory stimulation 1 hour after administration; read-out: Seizure suppression rate (%). The method, then:
The animal model used in this test is a phenotype model for partial seizure (including secondary generalized seizure) and generalized tonic-clonic seizure, and has high clinical predictability. This test was performed in accordance with the report of De Sarro et al (Br J Pharmacol. 1988 February; 93(2): 247-56. Anticonvulsant effects of some calcium entry blockers in DBA/2 mice. De Sarro G B, Meldrum B S, Nistico G.).
In this test example, the example compounds shown in Table 3 below were used as test compounds. The following compound (compound of Example 5 of WO 2004/009559), which is the most similar compound when the substituent position is taken into consideration, was used as a comparative example compound.
The test compounds were suspended in 5% gum arabic/distilled water (w/v), and administered by forced oral administration to male and female DBA/2 mice (Japan SLC, Inc., 3 weeks old, 8 per group) at a dose of 30 mg/kg. After one hour of the oral administration of the test compound, each mouse was placed in a transparent acrylic cylinder 30 cm high and 23 cm in diameter, and 30 seconds were allowed for habituation. Then, they were exposed to auditory stimulation (12.6 kHz, 100-110 dB) for 1 minute or until a tonic seizure occurred.
The seizure response was assessed using the following scale, 0: no seizure, 1: wild running, 2: clonic seizure, 3: tonic seizure and 4: respiratory arrest. The maximum response was recorded as the seizure severity score.
The seizure suppression rate for each compound administration group was calculated according to the following formula.

Each structure is given as a SMILES string.

With `O=C1CCN(c2cnc(Oc3ccc(F)cc3)nc2)C(=O)N1` [Example 11], the responders at 30 mg/kg in the assay on ICR mice [1] is at least 75%; in the assay with ICR mice [2] it was at least 50%. In addition, in the assay with DBA/2 mice, the inhibition in vivo at 30 mg/kg was 97%.
As to `O=C1CCN(c2cnc(Oc3cccc(SC(F)(F)F)c3)nc2)C(=O)N1` [Example 23], the figures for the responders at 30 mg/kg with ICR mice [1] and in the assay on ICR mice [2] were at least 75% and at least 50%, respectively. In the assay with DBA/2 mice, the inhibition in vivo at 30 mg/kg was 100%.
Taken in the same sequence, the figures for `O=C1CCN(c2cnc(Oc3cccc(Cl)c3)nc2)C(=O)N1` [Example 26] were at least 50%, at least 75% and 100%.
Taken in the same sequence, the figures for `O=C1CCN(c2cnc(Oc3cccc(F)c3)nc2)C(=O)N1` [Example 3, 1-[2-(3-Fluorophenoxy)pyrimidin-5-yl]-5,6-dihydropyrimidine-2,4(1H,3H)-dione] were at least 75%, at least 75% and 100%.
Consider `Cc1ccc(F)cc1Oc1ncc(N2CCC(=O)NC2=O)cn1` [Example 38], for which the responders at 30 mg/kg with ICR mice [2] was at least 75%. In the assay on DBA/2 mice, the inhibition in vivo at 30 mg/kg was 100%.
Taken in the same sequence, the figures for `CC1CC(=O)NC(=O)N1c1cnc(Oc2ccccc2)nc1` (centres unmarked) [Example 16] were at least 75% and 100%.
Turning to `O=C1CCN(c2cnc(Oc3cccc(Br)c3)nc2)C(=O)N1` [Example 44], the responders at 30 mg/kg in the assay on ICR mice [1] was at least 50%. In the assay with DBA/2 mice, the inhibition in vivo at 30 mg/kg came to 85%.
With `COc1nc(Oc2cc(F)cc(F)c2)ncc1N1CCC(=O)NC1=O` [Example 54], in the assay on ICR mice [2], the responders at 30 mg/kg is at least 75%. Further, the inhibition in vivo at 30 mg/kg with DBA/2 mice came out at 93%.
For the compound `O=c1ccn(-c2cnc(Oc3ccccc3)nc2)c(=O)[nH]1` [Example 4, 1-(2-Phenoxypyrimidin-5-yl)pyrimidine-2,4(1H,3H)-dione], the responders at 30 mg/kg in the assay with ICR mice [1] is at least 75%; in the assay on ICR mice [2], at least 50%. The inhibition in vivo at 30 mg/kg in the assay on DBA/2 mice stood at 100%.
In the case of `O=C1CCN(c2cnc(Sc3cccc(F)c3)nc2)C(=O)N1` [Example 31], the responders at 30 mg/kg in the assay on ICR mice [2] was at least 75%. Further, the inhibition in vivo at 30 mg/kg with DBA/2 mice was determined as 79%.
The like results for `O=C1CCN(c2cnc(Sc3ccccc3)nc2)C(=O)N1` [Example 8, 1-[2-(Phenylthio)pyrimidin-5-yl]-5,6-dihydropyrimidine-2,4(1H,3H)-dione] were, in that order, at least 75% and 100%.
As for `C#Cc1ccc(Oc2ncc(N3CCC(=O)NC3=O)cn2)cc1` [Example 50], the inhibition in vivo at 30 mg/kg in the assay on DBA/2 mice came to 82%.
For `O=C1CCN(c2cnc(Oc3c(F)cccc3F)nc2)C(=O)N1` [Example 13], the responders at 30 mg/kg in the assay with ICR mice [1] and with ICR mice [2] was at least 75% in each case. Also, the inhibition in vivo at 30 mg/kg in the assay on DBA/2 mice is 100%.
As for `CCc1cccc(Oc2ncc(N3CCC(=O)NC3=O)cn2)c1` [Example 7, 1-[2-(3-Ethylphenoxy)pyrimidin-5-yl]-5,6-dihydropyrimidine-2,4(1H,3H)-dione], the inhibition in vivo at 30 mg/kg in the assay with DBA/2 mice turned out to be 88%.
Turning to `COc1nc(Oc2cccc(F)c2)ncc1N1CCC(=O)NC1=O` [Example 42], the responders at 30 mg/kg in the assay with ICR mice [1] was at least 50%; in the assay on ICR mice [2], at least 75%. Moreover, the inhibition in vivo at 30 mg/kg in the assay with DBA/2 mice came to 96%.
Take `O=C1CCN(c2cnc(Oc3cccc(C(F)(F)F)c3)nc2)C(=O)N1` [Example 9]: in the assay on ICR mice [2], the responders at 30 mg/kg is at least 50%. In addition, the inhibition in vivo at 30 mg/kg with DBA/2 mice came out at 94%.
Taken in the same sequence, the figures for `COc1nc(Oc2ccccc2F)ncc1N1CCC(=O)NC1=O` [Example 47] were at least 75% and 87%.
The like results for `O=C1CCN(c2cnc(-c3ccccc3)nc2)C(=O)N1` [Example 30] were, in that order, at least 75% and 97%.
For `O=C1CCN(c2ccccc2)C(=O)N1` [Comparative Example, reference compound], the inhibition in vivo at 30 mg/kg in the assay on DBA/2 mice worked out at 27%.
For `C[Si](C)(C)c1cccc(Oc2ncc(N3CCC(=O)NC3=O)cn2)c1` [Example 56], in the assay on ICR mice [1], the responders at 30 mg/kg is at least 50%. The inhibition in vivo at 30 mg/kg with DBA/2 mice was determined as 82%.
In the case of `Cc1c(F)cccc1Oc1ncc(N2CCC(=O)NC2=O)cn1` [Example 6, 1-[2-(3-Fluoro-2-methylphenoxy)pyrimidin-5-yl]-5,6-dihydropyrimidine-2,4(1H,3H)-dione], the responders at 30 mg/kg in the assay with ICR mice [2] is at least 50%. Also, in the assay on DBA/2 mice, the inhibition in vivo at 30 mg/kg worked out at 89%.
With `O=C1CCN(c2cnc(Oc3cc(F)cc(F)c3)nc2)C(=O)N1` [Example 14], the responders at 30 mg/kg with ICR mice [1] and with ICR mice [2] was at least 75% throughout. Besides, in the assay with DBA/2 mice, the inhibition in vivo at 30 mg/kg was 92%.
Take `Cc1cccc(Oc2ncc(N3CCC(=O)NC3=O)cn2)c1` [Example 22]: the responders at 30 mg/kg with ICR mice [1] and in the assay on ICR mice [2] was at least 75% throughout. Further, the inhibition in vivo at 30 mg/kg in the assay with DBA/2 mice came out at 100%.
Regarding `CN1C(=O)CCN(c2cnc(Oc3cccc(F)c3)nc2)C1=O` [Example 5, 1-[2-(3-Fluorophenoxy)pyrimidin-5-yl]-3-methyl-5,6-dihydropyrimidine-2,4(1H,3H)-dione], the responders at 30 mg/kg in the assay on ICR mice [1] and in the assay on ICR mice [2] was at least 75% in each case. Besides, in the assay with DBA/2 mice, the inhibition in vivo at 30 mg/kg was 100%.
In the case of `COc1nc(Oc2ccc(F)cc2)ncc1N1CCC(=O)NC1=O` [Example 48], in the assay on ICR mice [2], the responders at 30 mg/kg is at least 75%. The inhibition in vivo at 30 mg/kg in the assay with DBA/2 mice amounted to 96%.
On to `COc1nc(Oc2c(F)cccc2F)ncc1N1CCC(=O)NC1=O` [Example 52], for which, in the assay on DBA/2 mice, the inhibition in vivo at 30 mg/kg was found to be 93%.
`O=C1CCN(c2cnc(Oc3ccccc3F)nc2)C(=O)N1` [Example 2, 1-[2-(2-Fluorophenoxy)pyrimidin-5-yl]-5,6-dihydropyrimidine-2,4(1H,3H)-dione]: the responders at 30 mg/kg in the assay with ICR mice [1] and with ICR mice [2] was at least 75% in each case. The inhibition in vivo at 30 mg/kg in the assay on DBA/2 mice was 100%.
Consider `COc1nc(Oc2ccc(F)cc2F)ncc1N1CCC(=O)NC1=O` [Example 53], for which, in the assay on DBA/2 mice, the inhibition in vivo at 30 mg/kg was 83%.
The same measure, in the same setting: under `O=C1CCN(c2cnc(Oc3cccc(S(F)(F)(F)(F)F)c3)nc2)C(=O)N1` [Example 24] stands 90%.
Turning to `COc1nc(Oc2ccccc2)ncc1N1CCC(=O)NC1=O` [Example 18], the responders at 30 mg/kg with ICR mice [2] is at least 75%. Moreover, the inhibition in vivo at 30 mg/kg with DBA/2 mice came to 100%.
Take `O=C1CCN(c2cnc(Oc3ccc(F)c(F)c3)nc2)C(=O)N1` [Example 15]: the inhibition in vivo at 30 mg/kg in the assay with DBA/2 mice was 83%.
Still for that read-out and setting: under `[2H]C([2H])([2H])Oc1cccc(Oc2ncc(N3CCC(=O)NC3=O)cn2)c1` [Example 25] stands 89%.
Still for that read-out and setting: under `Cc1cc(C)cc(Oc2ncc(N3CCC(=O)NC3=O)cn2)c1` [Example 37] stands 77%.
As for `O=C1CCN(c2cnc(Oc3cccc(OC(F)(F)F)c3)nc2)C(=O)N1` [Example 10], the responders at 30 mg/kg with ICR mice [2] was at least 75%. In the assay with DBA/2 mice, the inhibition in vivo at 30 mg/kg was found to be 86%.
For the compound `O=C1CCN(c2cnc(Oc3ccc(Cl)cc3)nc2)C(=O)N1` [Example 40], the inhibition in vivo at 30 mg/kg in the assay on DBA/2 mice is 81%.
On to `O=C1CCN(c2cnc(Oc3cccc(-c4ccccc4)c3)nc2)C(=O)N1` [Example 45], for which the responders at 30 mg/kg in the assay with ICR mice [2] was at least 50%. In the assay with DBA/2 mice, the inhibition in vivo at 30 mg/kg worked out at 92%.
As to `COc1cccc(Oc2ncc(N3CCC(=O)NC3=O)cn2)c1` [Example 21], the inhibition in vivo at 30 mg/kg in the assay on DBA/2 mice came out at 93%.
